Literature values, collected in US20100047273A1, “Coxsackie B virus and type 1 diabetes” (priority 2007, published 2010).

Tested on: coxsackie B4 virus
Conditions: reported in references 4 and 5

Which “activity against coxsackie B4 virus” value does the source give for `Cc1cc(CCCOc2c(C)cc(-c3noc(C(F)(F)F)n3)cc2C)on1` [pleconaril] here?
The value was “active”.
